The numbers were not newly measured in US20060057174A1, “Natural-non-toxic insect repellant” (priority 2004, published 2006), which cites them from elsewhere.

The data set has as its system Aedes aegypti. The settings on record: ingredients of Skin-So-Soft bath oil.

Turning to `O=C(c1ccccc1)c1ccccc1` [benzophenone], the “repellent to Aedes aegypti” value is reported as “repellent”.

As to `CC(C)OC(=O)CCCCC(=O)OC(C)C` [diisopropyl adipate], the “repellent to Aedes aegypti” value is on record as “repellent”.
